Data as given in ChEMBL document CHEMBL6114940, “Exploring the pharmaceutical potential of ammonium organotrifluoroborate functional group: Comprehensive chemical, metabolic, and plasma stability evaluation” (Eur J Med Chem, 2024).
Calls of active or inactive are those of the source. The calls are words filed in the database; no cut-off is given here.

Experiments:
[1] = Stability of compound in 20 mM CH3COONH4 buffer at pH 5.8 assessed as solvolysis constant (K) incubated for 72 hrs by LC-MS analysis; format: physicochemical; set-up: unit not given beside the values; conditions: pH 5.8, 72 h
[2] = Stability of compound in 50 mM Tris-HCL buffer at pH 7.4 assessed as solvolysis constant (K) incubated for 72 hrs by LC-MS analysis; format: physicochemical; conditions: pH 7.4, 72 h
[3] = Stability of compound in 0.05 M HCL assessed as solvolysis constant (K) incubated for 72 hrs by LC-MS analysis; format: physicochemical; set-up: unit not given beside the values; conditions: buffer
[4] = Stability of compound in 0.5 M NaOH assessed as solvolysis constant (K) incubated for 72 hrs by LC-MS analysis; format: physicochemical; set-up: unit not given beside the values
[5] = Stability of compound in 0.9 % saline solution assessed as solvolysis constant (K) incubated for 72 hrs by LC-MS analysis; format: physicochemical; conditions: buffer
[6] = Stability of compound in 50 mM Tris-HCL buffer at pH 7.4 assessed as half life incubated for 72 hrs by LC-MS analysis; format: physicochemical
[7] = Stability of compound in 0.5 M NaOH assessed as half life incubated for 72 hrs by LC-MS analysis; format: physicochemical
[8] = Stability of compound in 0.05 M HCL assessed as half life incubated for 72 hrs by LC-MS analysis; format: physicochemical
[9] = Stability of compound in 0.9 % saline solution assessed as half life incubated for 72 hrs by LC-MS analysis; format: physicochemical
[10] = Stability of compound in 20 mM CH3COONH4 buffer at pH 5.8 assessed as half life incubated for 72 hrs by LC-MS analysis; format: physicochemical; conditions: 20 mM ammonium acetate (CH3COONH4) buffer
[11] = Stability in mouse plasma measured after 1 hr by LC-HRMS analysis; format: ADME, cell-free; conditions: read-out: Stability
[12] = Metabolic stability in mouse liver microsomes assessed as drug hydrolysis by measuring N-(boronomethyl)-N-butyl-N-(2-(2-(2-(((2R,3R,4S,5S,6R)-3,4,5-trihydroxy-6-(hydroxymethyl)tetrahydro-2H-pyran-2-yl)oxy)ethoxy)ethoxy)ethyl)butan-1-aminium formation incubated for 1 hr by LC-MS/MS analysis; format: ADME, Microsome
[13] = Stability of compound in Tris-HCL buffer at pH 7.4 assessed as N-(boronomethyl)-N-butyl-N-(2-(2-(2-(((2R,3R,4S,5S,6R)-3,4,5-trihydroxy-6-(hydroxymethyl)tetrahydro-2H-pyran-2-yl)oxy)ethoxy)ethoxy)ethyl)butan-1-aminium formation incubated for 72 hrs by LC-MS analysis; format: physicochemical; conditions: pH 7.4, 72 h
[14] = Stability of compound in 50 mM HCL assessed as N-(boronomethyl)-N-butyl-N-(2-(2-(2-(((2R,3R,4S,5S,6R)-3,4,5-trihydroxy-6-(hydroxymethyl)tetrahydro-2H-pyran-2-yl)oxy)ethoxy)ethoxy)ethyl)butan-1-aminium formation incubated for 72 hrs by LC-MS analysis; format: physicochemical; conditions: buffer
[15] = Stability of compound in 0.5 M NaOH assessed as N-(boronomethyl)-N-butyl-N-(2-(2-(2-(((2R,3R,4S,5S,6R)-3,4,5-trihydroxy-6-(hydroxymethyl)tetrahydro-2H-pyran-2-yl)oxy)ethoxy)ethoxy)ethyl)butan-1-aminium formation incubated for 72 hrs by LC-MS analysis; format: physicochemical
[16] = Stability of compound in 0.9 % saline solution assessed as N-(boronomethyl)-N-butyl-N-(2-(2-(2-(((2R,3R,4S,5S,6R)-3,4,5-trihydroxy-6-(hydroxymethyl)tetrahydro-2H-pyran-2-yl)oxy)ethoxy)ethoxy)ethyl)butan-1-aminium formation incubated for 72 hrs by LC-MS analysis; format: physicochemical; conditions: buffer
[17] = Stability of compound in 20 mM CH3COONH4 buffer at pH 5.8 assessed as N-(boronomethyl)-N-butyl-N-(2-(2-(2-(((2R,3R,4S,5S,6R)-3,4,5-trihydroxy-6-(hydroxymethyl)tetrahydro-2H-pyran-2-yl)oxy)ethoxy)ethoxy)ethyl)butan-1-aminium formation incubated for 72 hrs by LC-MS analysis; format: physicochemical; conditions: pH 5.8, 72 h
[18] = Stability of compound in 0.5 M NaOH assessed as N-butyl-N-methyl-N-(2-(2-(2-(((2R,3R,4S,5S,6R)-3,4,5-trihydroxy-6-(hydroxymethyl)tetrahydro-2H-pyran-2-yl)oxy)ethoxy)ethoxy)ethyl)butan-1-aminium formation incubated for 72 hrs by LC-MS analysis; format: physicochemical
[19] = Stability of compound in 0.3 % H2O2 assessed as (2R,3R,4S,5S,6R)-2-(2-(2-(2-(dibutylamino)ethoxy)ethoxy)ethoxy)-6-(hydroxymethyl)tetrahydro-2H-pyran-3,4,5-triol formation incubated for 1 hrs by LC-MS analysis; format: physicochemical
[20] = Stability of compound in phosphate/D2O buffer at pH 7.4 assessed as drug hydrolysis by measuring N-(boronomethyl)-N-butyl-N-(2-(2-(2-(((2R,3R,4S,5S,6R)-3,4,5-trihydroxy-6-(hydroxymethyl)tetrahydro-2H-pyran-2-yl)oxy)ethoxy)ethoxy)ethyl)butan-1-aminium formation incubated for 72 hrs by LC-MS analysis; format: physicochemical; conditions: pH 7.4, 72 h
Fibroblast [21] = test: Cytotoxicity against human fibroblast assessed as reduction in cell viability at 0.1 to 300 uM incubated for 24 to 48 hrs by MTT assay; format: toxicity, cell-based; conditions: dose lower 0.1 µM, time lower 24 hrs, dose upper 300 µM, time upper 48 hrs
A-375 [22] = test: Cytotoxicity against human A-375 assessed as reduction in cell viability at 0.1 to 300 uM incubated for 24 to 48 hrs by MTT assay; format: functional, cell-based; conditions: dose 0.1-300 µM, time 24-48 hrs
U-87 MG [23] = test: Cytotoxicity against human U-87 MG assessed as reduction in cell viability at 0.1 to 300 uM incubated for 24 to 48 hrs by MTT assay; format: functional, cell-based; conditions: U-87MG ATCC, dose 0.1-300 µM, time 24-48 hrs
Fibroblast [24] = test: Cytotoxicity against human fibroblast assessed as reduction in cell viability at 0.1 to 300 uM incubated for 72 hrs by MTT assay; format: toxicity, cell-based; conditions: dose 0.1-300 µM
A-375 [25] = test: Cytotoxicity against human A-375 assessed as reduction in cell viability at 0.1 to 300 uM incubated for 72 hrs by MTT assay; format: functional, cell-based; conditions: dose 0.1-300 µM
U-87 MG [26] = test: Cytotoxicity against human U-87 MG assessed as reduction in cell viability at 0.1 to 300 uM incubated for 72 hrs by MTT assay; format: functional, cell-based; conditions: U-87MG ATCC, dose 0.1-300 µM
Fibroblast [27] = test: Cytotoxicity against human fibroblast assessed as reduction in cell viability at 300 uM incubated for 24 to 72 hrs by MTT assay relative to control; format: toxicity, cell-based; conditions: time 24-72 hrs
A-375 [28] = test: Cytotoxicity against human A-375 assessed as reduction in cell viability at 300 uM incubated for 24 to 72 hrs by MTT assay relative to control; format: functional; conditions: time 24-72 hrs
U-87 MG [29] = test: Cytotoxicity against human U-87 MG assessed as reduction in cell viability at 300 uM incubated for 24 to 72 hrs by MTT assay relative to control; format: functional, U-87MG ATCC; conditions: time 24-72 hrs
Fibroblast [30] = test: Cytotoxicity against human fibroblast assessed as reduction in cell viability upto 100 uM incubated for 24 to 72 hrs by MTT assay; format: toxicity, cell-based; conditions: time 24-72 hrs
A-375 [31] = test: Cytotoxicity against human A-375 assessed as reduction in cell viability upto 100 uM incubated for 24 to 72 hrs by MTT assay; format: functional, cell-based; conditions: time 24-72 hrs
U-87 MG [32] = test: Cytotoxicity against human U-87 MG assessed as reduction in cell viability upto 100 uM incubated for 24 to 72 hrs by MTT assay; format: functional, cell-based; conditions: U-87MG ATCC, time 24-72 hrs
[33] = Stability of compound at pH 7.5 in phosphate buffer at 2 mg/ml; format: physicochemical
[34] = Metabolic stability in mouse liver microsomes assessed as drug hydrolysis by measuring 1-borono-N,N-dimethyl-N-((1-((3R,4R,5S,6R)-2,4,5-trihydroxy-6-(hydroxymethyl)tetrahydro-2H-pyran-3-yl)-1H-1,2,3-triazol-4-yl)methyl)methanaminium formation incubated for 1 hrs by LC-MS/MS analysis; format: ADME, Microsome
[35] = Stability of compound in 50 mM Tris-HCL buffer at pH 7.4 assessed as 1-borono-N,N-dimethyl-N-((1-((3R,4R,5S,6R)-2,4,5-trihydroxy-6-(hydroxymethyl)tetrahydro-2H-pyran-3-yl)-1H-1,2,3-triazol-4-yl)methyl)methanaminium formation incubated for 72 hrs by LC-MS analysis; format: physicochemical; conditions: pH 7.4, 72 h
[36] = Stability of compound in 0.05 M HCL assessed as 1-borono-N,N-dimethyl-N-((1-((3R,4R,5S,6R)-2,4,5-trihydroxy-6-(hydroxymethyl)tetrahydro-2H-pyran-3-yl)-1H-1,2,3-triazol-4-yl)methyl)methanaminium formation incubated for 72 hrs by LC-MS analysis; format: physicochemical; conditions: buffer
[37] = Stability of compound in 0.5 M NaOH assessed as 1-borono-N,N-dimethyl-N-((1-((3R,4R,5S,6R)-2,4,5-trihydroxy-6-(hydroxymethyl)tetrahydro-2H-pyran-3-yl)-1H-1,2,3-triazol-4-yl)methyl)methanaminium formation incubated for 72 hrs by LC-MS analysis; format: physicochemical
[38] = Stability of compound in 0.9 % saline solution assessed as 1-borono-N,N-dimethyl-N-((1-((3R,4R,5S,6R)-2,4,5-trihydroxy-6-(hydroxymethyl)tetrahydro-2H-pyran-3-yl)-1H-1,2,3-triazol-4-yl)methyl)methanaminium formation incubated for 72 hrs by LC-MS analysis; format: physicochemical; conditions: buffer
[39] = Stability of compound in 20 mM CH3COONH4 buffer at pH 5.8 assessed as 1-borono-N,N-dimethyl-N-((1-((3R,4R,5S,6R)-2,4,5-trihydroxy-6-(hydroxymethyl)tetrahydro-2H-pyran-3-yl)-1H-1,2,3-triazol-4-yl)methyl)methanaminium formation incubated for 72 hrs by LC-MS analysis; format: physicochemical; conditions: pH 5.8, 72 h
[40] = Stability of compound in 0.5 M NaOH assessed as N,N,N-trimethyl-1-(1-((3R,4R,5S,6R)-2,4,5-trihydroxy-6-(hydroxymethyl)tetrahydro-2H-pyran-3-yl)-1H-1,2,3-triazol-4-yl)methanaminium formation incubated for 72 hrs by LC-MS analysis; format: physicochemical
[41] = Stability of compound in 0.3 % H2O2 assessed as (3R,4R,5S,6R)-3-(4-((dimethylamino)methyl)-1H-1,2,3-triazol-1-yl)-6-(hydroxymethyl)tetrahydro-2H-pyran-2,4,5-triol formation incubated for 1 hrs by LC-MS analysis; format: physicochemical

## CCCC[N+](CCCC)(CCOCCOCCO[C@@H]1O[C@H](CO)[C@@H](O)[C@H](O)[C@H]1O)C[B-](F)(F)F
[1]
  K: 0.03
[2]
  K: 0.086
[3]
  K: 2.617
[4]
  K: 0.082
[5]
  K: 0.102
[6]
  half-life: 8.07 h
[7]
  half-life: 8.47 h
[8]
  half-life: 0.265 h
[9]
  half-life: 6.82 h
[10]
  half-life: 22.8 h
[11]
  remaining at 1 h: 8.89%
[12]
  Drug metabolism: metabolite_detected
[13]
  Stability: Stable
[14]
  Stability: Stable
[15]
  Stability: Stable
[16]
  Stability: Stable
[17]
  Stability: Stable
[18]
  Stability: Stable
[19]
  Stability: Stable
[20]
  Stability: Stable

## C[N+](C)(Cc1cn([C@@H]2[C@@H](O)[C@H](O)[C@@H](CO)O[C@@H]2O)nn1)C[B-](F)(F)F
Fibroblast [21]
  Activity: Non-toxic
A-375 [22]
  Activity: Active
U-87 MG [23]
  Activity: Active
Fibroblast [24]
  Activity: Non-toxic
A-375 [25]
  Activity: Active
U-87 MG [26]
  Activity: Active
Fibroblast [27]
  Activity: -15%
A-375 [28]
  Activity: -15%
U-87 MG [29]
  Activity: -15%
Fibroblast [30]
  Activity: Non-toxic
A-375 [31]
  Activity: Active
U-87 MG [32]
  Activity: Active
[1]
  K: 8.731
[2]
  K: 0.017
[3]
  K: 0.766
[4]
  K: 0.016
[5]
  K: 0.038
[6]
  half-life: 25 h
[7]
  half-life: ≥ 20.9 h
[8]
  half-life: 0.904 h
[9]
  half-life: 18.3 h
[10]
  half-life: ~0.0794 h
[11]
  remaining at 1 h: 4.15%
[33]
  Stability: Stable
[34]
  Drug metabolism: metabolite_detected
[35]
  Stability: Stable
[36]
  Stability: Stable
[37]
  Stability: Stable
[38]
  Stability: Stable
[39]
  Stability: Stable
[40]
  Stability: Stable
[41]
  Stability: Stable
